System: IMQ-induced psoriasis mice
Assay: Dorsal skin lesions of IMQ-induced psoriasis mice
Assay type: in vivo, Balb/c mice
Method: Balb/c mice (female, 6-8 weeks, 20+2 g), with certificate number [SCXK (Xiang) 2021-0002], were purchased from Hunan SJA Laboratory Animal (Changsha, China). All mice were housed in an specific pathogen free (SPF)-grade animal room with a 12 h light/12 h dark cycle, and experiments were started after the mice were acclimated for one week. Next, 96 mice were randomly divided into 12 groups (8 mice/group), including Control group, Control solvent (white vaseline) group, IMQ group, IMQ solvent (white vaseline) group, preventive administration of positive medicament Clo group (IMQ+Clo 55 mg), therapeutic administration of positive medicament group (IMQ+Clo (A) 55 mg), preventive administration of Tan low-dose group (IMQ+Tan 40 μg/cm^2), medium-dose group (IMQ+Tan160 μg/cm^2), and high-dose group (IMQ+Tan 640 μg/cm^2), and therapeutic administration of Tan low-dose group (IMQ+Tan (A) 40 μg/cm^2), medium-dose group (IMQ+Tan (A) 160 μg/cm^2), and high-dose group (IMQ+Tan (A) 640 μg/cm^2). After the mice were anesthetized, a 2 cm×3 cm area on the back was selected for hair removal. Modeling began 48 h after hair removal, and all modeling mice were applied with 65 mg (55 mg on the back and 5 mg on each ear) of IMQ cream every morning for 10 d. In the Tan preventive administration groups, the low-dose group (40 μg/cm^2), the medium-dose group (160 μg/cm^2), and the high-dose group (640 μg/cm^2) were topically administered to the back and ears every afternoon starting from the first day of modeling for 10 d. In the Tan therapeutic administration groups, the low-dose group (40 μg/cm^2), the medium-dose group (160 μg/cm^2), and the high-dose group (640 μg/cm^2) were topically administered to the back and ears every afternoon starting from the 3rd day of modeling for 10 d. The mice in the preventive positive medicament group received Clo (55 mg/mouse, 45 mg on the back, 5 mg on each ear) treatment from the first day of modeling, and the mice in the therapeutic positive medicament group received Clo (55 mg/mouse, 45 mg on the back, 5 mg on each ear) treatment from the third day of modeling.

`COc1ccc(-c2cc(=O)c3c(OC)c(OC)c(OC)c(OC)c3o2)cc1` [Tan, tangeretin] was tested. Which “improvement of dorsal skin lesions compared with positive control Clo” value (high-dose (640 μg/cm^2) preventive and therapeutic groups) did it give?
The value was “comparable to that of the positive control Clo”.

And the “erythema and scaling of dorsal skin” value (preventive and therapeutic topical administration, 40/160/640 μg/cm^2, vs IMQ group, dose-dependent)?
The value was “significant reduction in erythema and scaling”.

What about the “scales and erythema on the dorsal skin” value (preventive group (from first day of modeling)) of the same molecule?
Its value is “almost disappeared”.

What about the “back scales after treatment” value (therapeutic group (from 3rd day of modeling)) of the same molecule?
Its value is “only a minimal amount of back scales remained”.
